Reference: paper PMC11747586, “Synthesis and Investigation of Peptide–Drug Conjugates Comprising Camptothecin and a Human Protein‐Derived Cell‐Penetrating Peptide” (Chemical Biology & Drug Design, 2025)
“And” between values parts separate entries of the source, which are not always exact repeats. Identical values can stand only once. Residues, ends and D or L forms follow the SMILES beside them. *: point of attachment. S(CH2)2OCO2(CPT-20-yl) = CC[C@@]1(OC(=O)OCCS*)C(=O)OCc2c1cc1n(c2=O)Cc2cc3ccccc3nc2-1

Assays:
human RBCs = test: Red blood cell (RBC) lysis, released hemoglobin; details: 72 h
Procedure: (§1) Cell death was measured using resazurin, with 0.1% (v/v) Triton X‐100 as a control for 100% cell death. Data points are expressed as mean ± SD for at least two biological replicates. Dose response curves were fitted using [inhibitor] versus response with variable slope, Graphpad Prism v10. […] RBC lysis was determined by measuring released hemoglobin, with 0.1% (v/v) Triton X‐100 as a control for 100% cell lysis. Melittin was included as a membranolytic control. Data points are expressed as mean ± SD for two technical replicates. Dose response curves were fitted using [inhibitor] versus response with variable slope, Graphpad Prism v10. […] CC50 values are expressed as mean (SEM). […]
(§2) Red blood cell (RBC) lysis
Human RBCs and serum were obtained from healthy volunteers via the Red Cross Lifeblood,
Brisbane, Australia. RBCs were washed three times with PBS and stored in culture medium (RPMI

[1] = Cytotoxicity (resazurin) against cultured HaCaT noncancerous cells; details: human
Procedure: as §1
(§3) HaCaT cells were grown in DMEM medium and HT144 cells were grown in RPMI medium supplemented with 2 mM L-glutamine and 10 mM sodium pyruvate. Media were supplemented with 10% (v/v) fetal bovine serum, 100 units/mL of penicillin and […] of streptomycin. Flasks of cultured cells were maintained in a humidified incubator (37 °C, 5% CO2) and passaged every 2–3 days to maintain cultures between 20–90% confluence. Cell line identity was verified by comparing […]
(§4) STR profiles of the cell lines against database entries from the DSMZ-German collection of microorganisms and cell cultures, GmBH https://celldive.dsmz.de/str/browse.
Toxicity to the HT144 and HaCaT cell lines was tested following peptide treatment by measuring the metabolism of resazurin into fluorescent resorufin. The assays were performed with 5000 cells/well (96-well plate) in serum free media. Cells were incubated with serially diluted peptides, PDCs or drugs for 72 h or 24 h (37 °C, 5% CO2). PBS and 0.1% (v/v) Triton X-100 were included as controls for 0% and 100% toxicity. Resazurin was added at 0.02% (w/v) final concentration 2 h prior to the assay end point. Fluorescence (λex = 560 nm, λem = 585 nm) was measured using a Tecan infinite M1000Pro multiplate reader. Percentage cytotoxicity was calculated relative to 0% and 100% controls.
Dose-response curves were fitted and CC50 values were determined using [inhibitor] vs response with four parameters with the top constrained to 100% (GraphPad Prism version 10.0.2). Data was collected as three biological replicates, with experiments conducted on different days.
as §2
Human RBCs and serum were obtained from healthy volunteers via the Red Cross Lifeblood, Brisbane, Australia. RBCs were washed three times with PBS and stored in culture medium (RPMI

[2] = Parallel artificial membrane permeability assay (PAMPA); type: in vitro ADME; details: 4 h; for % recovered (soluble fractions) / Papp at 4 h, 4 μM: 4 μM; for % recovered (soluble fractions): combined apical and basolateral fractions; for Papp at 4 h, 4 μM: PAMPA, apical to basolateral, read-out: apparent permeability (Papp); for degradation during PAMPA experiment: cell-free, PBS, 37 °C
Procedure: FIGURE 4 (A) Membrane permeability and cellular uptake of PDCs, scaffold peptides, and CPT. Compounds were added to PAMPA wells (4 μM) and incubated for 4 h. Supernatant from apical and basolateral sides of the membrane were collected and analyzed using LC–MS. The amount in the combined soluble fractions was compared to the starting amount to determine % recovery, and the apparent permeability (Papp) was calculated as before (Sevin et al. [2013]). Data is expressed as mean ± SD from a single experiment with three technical replicates. (B) Internalization/cell membrane association of PDCs 12–14 and PDIP with HT144 cells. Cells were treated with PDIP or PDCs (4 μM) for 1 h, washed to remove extracellular compound, then extracted with 75% (v/v) MeCN in mQH2O (containing 1.75% (v/v) TFA), to recover soluble peptide or PDC from precipitated cell proteins. The relative amount of internalized peptide or PDC was determined by integrating area under the curve (AUC) for the [M + 6H]^6+ m/z peak (for the intact mass) using time of flight–mass spectrometry (see Figure S2). […] Data is expressed as mean ± SD from a single experiment with three technical replicates for each treatment and control and was analyzed with ANOVA (Tukey multiple comparisons; **p < 0.01, *p < 0.05). (C) Detection of intracellular CPT following 6 h treatment of HT144 cells with CPT and PDCs 12 and 14. […] Data is expressed as mean ± SD from a single experiment with three technical replicates for each treatment and was analyzed with ANOVA (Fisher multiple paired comparisons; **p < 0.01, *p < 0.05). TEXT PRINTED IN THE PICTURE: (A) PDIP: % recovered (soluble fractions): 94 | (A) 12: % recovered (soluble fractions): 58 | (A) 14: % recovered (soluble fractions): 33 | (A) 15: % recovered (soluble fractions): 40 | (A) c[A] PDIP: % recovered (soluble fractions): 34 | (A) CPT: % recovered (soluble fractions): 92 […]
For the first assay, the PDCs (12–15), scaffold peptides and CPT (4 μM) were added to the apical side of PAMPA monolayers and incubated for 4 h. […] PDIP, CPT, and PDCs 12 and 14 had high permeability (Papp ≥ 2 × 10^−6 cm/s), highlighting that these PDCs maintain membrane permeability with the CPT cargo attached. […] Reliable permeability data were not obtained for PDC 13 because of poor recovery of the PDC from soluble fractions, and degradation during the 4 h PAMPA experiment. […] Instability of the carbonate linkage within CPT conjugates containing a dipeptide linker has been previously reported (Walker et al. [2002]), highlighting the potential incompatibility of this drug–linker combination for CPT PDCs. Considering the observed degradation of 13 in the cell‐free assay, it is also possible that extracellular degradation occurred during the cytotoxicity assays.
Parallel artificial membrane permeability assay (PAMPA)
PAMPA was performed according to the manufacturer instructions for the BD Gentest pre-coated PAMPA plate system (BD Biosciences), as previously described.16 Briefly, peptides and PDCs (4 μM in PBS) were added to the apical side of PAMPA wells and incubated for 4 h at 37 °C, 5% CO2 with 95% humidity. Soluble fractions were recovered from the apical and basolateral sides, and compound concentration was quantified using a Shimadzu LCMS-2020 instrument with a Phenomenex 5 µm C18 / 300 Å / 150 x 2 mm LC column. Data was collected from three technical replicates for each compound. The % recovery was determined from (combined from apical and basolateral fractions) relative to the starting concentration:
Recovery rate : R (%) = (C஺ ×V஺ +C஻ ×V஻ )× 100 where CA and CB are the apical and basolateral concentrations (µM), VA and VB are the apical and basolateral volumes (mL), and C0 is the initial concentration (µM).
The apparent permeability coefficient (Papp) was calculated using the following equations17 and where A is the membrane surface area (cm2): […]

HT144 (melanoma) cells = test: cells
Procedure: Cell death was measured using resazurin, with 0.1% (v/v) Triton X‐100 as a control for 100% cell death. Data points are expressed as mean ± SD for at least two biological replicates. Dose response curves were fitted using [inhibitor] versus response with variable slope, Graphpad Prism v10. […] RBC lysis was determined by measuring released hemoglobin, with 0.1% (v/v) Triton X‐100 as a control for 100% cell lysis. Melittin was included as a membranolytic control. Data points are expressed as mean ± SD for two technical replicates. Dose response curves were fitted using [inhibitor] versus response with variable slope, Graphpad Prism v10. […] CC50 values are expressed as mean (SEM).
Cell death was measured using resazurin, with 0.1% (v/v) Triton X-100 as a control for 100% cell death. Data points are expressed as mean ± SD for at least two biological replicates. CC50 values are expressed as mean (SEM). Note: CPT-dipeptide-PDIP was not included in this study. c[A]PDIP is a desulfurized variant of cPDIP 2 (see Table S1) to prevent the presence of free thiol during assays. […]
as §3, §4
Toxicity to the HT144 and HaCaT cell lines was tested following peptide treatment by measuring the metabolism of resazurin into fluorescent resorufin. The assays were performed with 5000 cells/well (96-well plate) in serum free media. Cells were incubated with serially diluted peptides, PDCs or […]

| SMILES | RBC lysis (human RBCs; concentration range 16 nM—2 μM) | CC50 at 72 h [1] | % recovered (soluble fractions) [2] | Papp at 4 h, 4 μM [2] | cytotoxic activity against HT144 at 24 h (HT144 (melanoma) cells; 24 h incubation, 16 nM to 2 μM (CPT, PDCs), up to 32 μM (peptides)) | CC50 (HT144 (melanoma) cells; Homo sapiens, HT-144, 72 h, read-out: CC50 (half maximal cytotoxicity concentration) HT144) | degradation during PAMPA experiment [2] | HC10 (minimal hemolytic concentration) RBC (human RBCs; human RBCs 0.25% v/v) | concentration that completely lysed the RBCs (human RBCs; human RBCs) |
| --- | --- | --- | --- | --- | --- | --- | --- | --- | --- |
| CC[C@@]1(O)C(=O)OCc2c1cc1n(c2=O)Cc2cc3ccccc3nc2-1 [CPT, Camptothecin] | did not lyse RBCs | 570 nM | 92% and > 90% | ≥ 2 ×10⁻⁶ cm/s | absence of activity | 380 nM |  |  |  |
| CC[C@H](C)[C@@H]1NC(=O)[C@H](CCCCN)NC(=O)[C@H](CCCCN)NC(=O)[C@H](Cc2ccc(O)cc2)NC(=O)[C@H](CC(C)C)NC(=O)[C@@H]2CCCN2C(=O)CNC(=O)CNC(=O)[C@@H](NC(=O)CN)CSSC[C@@H](C(=O)N[C@@H](CCC(=O)O)C(=O)N[C@@H](CO)C(N)=O)NC(=O)[C@H](CC(C)C)NC(=O)[C@H](CCCCN)NC(=O)[C@H](CCCCN)NC(=O)[C@H]([C@@H](C)CC)NC(=O)[C@H]([C@@H](C)CC)NC(=O)[C@H](CCCCN)NC(=O)[C@H](CCCCN)NC(=O)[C@H](Cc2ccc(O)cc2)NC(=O)[C@H](CC(C)C)NC(=O)[C@@H]2CCCN2C(=O)[C@H](C)NC(=O)CNC(=O)CNC(=O)[C@H](Cn2cc(COCCC(=O)N[C@H](C(=O)N[C@@H](CCCNC(N)=O)C(=O)Nc3ccc(COC(=O)O[C@]4(CC)C(=O)OCc5c4cc4n(c5=O)Cc5cc6ccccc6nc5-4)cc3)C(C)C)nn2)NC(=O)CNC(=O)CNC(=O)[C@H](CO)NC(=O)[C@H](CCC(=O)O)NC(=O)[C@H](CC(C)C)NC(=O)[C@H](CC(C)C)NC(=O)[C@H](CCCCN)NC(=O)[C@H](CCCCN)NC(=O)[C@H]([C@@H](C)CC)NC1=O [PDC 13] |  |  | poor recovery |  |  |  | degradation |  |  |
| CC[C@H](C)[C@H](NC(=O)CN)C(=O)NCC(=O)N[C@@H](C)C(=O)N[C@H](C(=O)N[C@@H](CC(C)C)C(=O)N[C@@H](CCCCN)C(=O)N[C@H](C(=O)N[C@@H](CC(C)C)C(=O)N[C@H](C(=O)N[C@H](C(=O)NCC(=O)N[C@@H](CC(C)C)C(=O)N1CCC[C@H]1C(=O)N[C@@H](C)C(=O)N[C@@H](CC(C)C)C(=O)N[C@H](C(=O)N[C@@H](CO)C(=O)N[C@@H](Cc1c[nH]c2ccccc12)C(=O)N[C@H](C(=O)N[C@@H](CCCCN)C(=O)N[C@@H](CCCNC(=N)N)C(=O)N[C@@H](CCCCN)C(=O)N[C@@H](CCCNC(=N)N)C(=O)N[C@@H](CCC(N)=O)C(=O)N[C@@H](CCC(N)=O)C(N)=O)[C@@H](C)CC)[C@@H](C)CC)[C@@H](C)O)[C@@H](C)O)C(C)C)C(C)C [Melittin] |  |  |  |  |  |  |  | 1.8 µM | 8 µM |
| CC[C@H](C)[C@@H]1NC(=O)[C@H](CCCCN)NC(=O)[C@H](CCCCN)NC(=O)[C@H](Cc2ccc(O)cc2)NC(=O)[C@H](CC(C)C)NC(=O)[C@@H]2CCCN2C(=O)[C@H](C)NC(=O)CNC(=O)CNC(=O)[C@H](CSSCCOC(=O)O[C@]2(CC)C(=O)OCc3c2cc2n(c3=O)Cc3cc4ccccc4nc3-2)NC(=O)CNC(=O)CNC(=O)[C@H](CO)NC(=O)[C@H](CCC(=O)O)NC(=O)[C@H](CC(C)C)NC(=O)[C@H](CC(C)C)NC(=O)[C@H](CCCCN)NC(=O)[C@H](CCCCN)NC(=O)[C@H]([C@@H](C)CC)NC(=O)[C@H]([C@@H](C)CC)NC(=O)[C@H](CCCCN)NC(=O)[C@H](CCCCN)NC(=O)[C@H](Cc2ccc(O)cc2)NC(=O)[C@H](CC(C)C)NC(=O)[C@@H]2CCCN2C(=O)[C@H](C)NC(=O)CNC(=O)CNC(=O)[C@H](CO)NC(=O)CNC(=O)CNC(=O)[C@H](CO)NC(=O)[C@H](CCC(=O)O)NC(=O)[C@H](CC(C)C)NC(=O)[C@H](CC(C)C)NC(=O)[C@H](CCCCN)NC(=O)[C@H](CCCCN)NC(=O)[C@H]([C@@H](C)CC)NC1=O [PDC 15] (cyclo(APLYKKIIKKLLESGGC(S(CH2)2OCO2(CPT-20-yl))GGAPLYKKIIKKLLESGGSGG)) |  |  | 40% | ~0.9 ×10⁻⁶ cm/s |  |  | Negligible degradation |  |  |
